# Source: publication PMC8632988, “Inhibition of SYK and cSrc kinases can protect bone and cartilage in preclinical models of osteoarthritis and rheumatoid arthritis” (Scientific Reports, 2021)
# Key:
# [1] = tested on: Wistar rats, MIA osteoarthritis model; experiment: Monosodium iodoacetate induced osteoarthritis in rats; type: in vivo, rat
# Procedure: Monosodium iodoacetate (MIA) osteoarthritis model was performed at Pharmenterprises, Russia according to the known procedure[32] and approved by Ethics Committee of Pharmenterprises. Male 10 week old Wistar rats were divided into eight groups: negative control (#1), positive control (#2) and six treatment groups (#3–8), ten rats in each group. Group #1 was left intact while rats in groups #2–8 were anesthetized on the day 0 with intraperitoneal injection of Zoletil and Xylazine mixture and given a single intra-articular injection of MIA through the infrapatellar ligament of the right knee. Rats were treated as follows: (#1, #2) 0.5% solution of methylcellulose in PBS (pH = 3) as vehicle control, (#3, #5) 100 mg/kg MT-SYK-03, (#4, #6) 500 mg/kg MT-SYK-03, (#7) 50 mg/kg nalgesin and (#8) 0.1 mg/kg zoledronic acid. Rats in groups #1–4 received treatment intragastrically QD, 25 and 1 h before the MIA injection, and then daily until the end of the study on the day 28. Rats in groups #5–6 received treatment intragastrically QD from the day 7 until the end of the study. Rats in group #7 were treated QD starting on the day 14 and until the end of the study. Finally, rats in group #8 were treated subcutaneously immediately after the MIA injection and then every third day until the study end. Disease progression was monitored by measuring mechanical hyperalgesia, mechanical allodynia and grip strength of hind paws on the days 14, 21, and 28, just before the treatment, and 1, 3, 6 h after it.
# [2] = tested on: Sprague-Dowley rats, medial meniscal tear (MMT) model; experiment: Surgically induced meniscal tear OA in rats; type: in vivo, rat; conditions: 0.1 mg/kg subcutaneously once every three days, day 21
# Procedure: Medial meniscal tear (MMT) model was performed at Pharmenterprises, Russia according to the published procedure[31] and approved by Ethics Committee of Pharmenterprises. Male 4-month old Sprague-Dowley rats were anesthetized with Zoletil (Vibrac, France) and Xylazine (Interchemie werken "De Adelaar" BV, Netherlands) mixture. The medial collateral ligament was transected, and the medial meniscus was grasped with a hemostat and reflected proximally toward the femur. The meniscus was transected and then skin was closed with sutures. 60–90 min after surgery rats were subcutaneously injected with flexoprofen (VIC GROUP, Russia). Treatment groups (20 rats each) were intragastrically treated with MT-SYK-03 (100 and 500 mg/kg) or vehicle control (0.5% methylcellulose solution) 24 h before OA induction and then once daily for 21 day. Active control group was subcutaneously injected with zoledronic acid (0.1 mg/kg) 24 h before OA induction and then once every three days for 21 day. After 21 day animals were sacrificed; surgically operated right knee was removed and used for image analysis.
# [3] = tested on: mongrel rats, AIA model; experiment: Adjuvant-induced arthritis in rats; type: in vivo; conditions: for Animal death / The increase in the volume of the paws relative to the initial level: Diclofenac 8 mg/kg QD intragastric
# Procedure: Rat adjuvant-induced arthritis (AIA) model was performed at Pharmenterprises, Russia as described previously^3 and approved by Ethics Committee of Pharmenterprises. Male 10 week old mongrel rats were divided into eleven groups: negative control (#1), positive control (#2) and nine treatment groups (#3–11), ten […] in each group. Group #1 was left intact, while subplantar injection of 0.1 mL of Complete Freund’s adjuvant (CFA, Sigma) was made on day 0 at right paws of rats in groups […]. […] Disease progression was monitored by measuring volumes of the right (involved) and left (non-involved) paws on days 0, 14, 18, 21, 25, and 28.
# [4] = Zoledronic acid 0.1 mg/kg, 0–28 days once three days, 14 day, 1 hour after admin.
# [5] = Zoledronic acid 0.1 mg/kg, 0–28 days once three days, 14 day, 3 hours after admin.
# [6] = Zoledronic acid 0.1 mg/kg, 0–28 days once three days, 21 day, 1 hour after admin.
# [7] = Zoledronic acid 0.1 mg/kg, 0–28 days once three days, 21 day, 3 hours after admin.
# [8] = Zoledronic acid 0.1 mg/kg, 0–28 days once three days, 28 day, 1 hour after admin.
# [9] = Zoledronic acid 0.1 mg/kg, 0–28 days once three days, 28 day, 3 hours after admin.
structure (smiles),measurement,setting,value
"O=P(O)(O)C(O)(Cn1ccnc1)P(=O)(O)O [zoledronic acid, reference compound]",hind paws grip strength,[1]; [4],60.4 ± 10.4 & % from the initial one
same,mechanical allodynia pain threshold,[1]; [4],100.6±8 & % from the initial one
same,mechanical hyperalgesia,[1]; [4],68.1 ± 6.3 & % from the initial one
same,hind paws grip strength,[1]; [5],75.4 ± 7.7 & % from the initial one
same,mechanical allodynia pain threshold,[1]; [5],101.3±12.3 & % from the initial one
same,mechanical hyperalgesia,[1]; [5],68.3 ± 3.5 & % from the initial one
same,hind paws grip strength,[1]; [6],96 ± 6.8 % from the initial one
same,mechanical allodynia pain threshold,[1]; [6],108.2±7.9 & % from the initial one
same,mechanical hyperalgesia,[1]; [6],85.6 ± 5.6 % from the initial one
same,hind paws grip strength,[1]; [7],84.3 ± 7.5 % from the initial one
same,mechanical allodynia pain threshold,[1]; [7],106.8±6.5 & % from the initial one
same,mechanical hyperalgesia,[1]; [7],83.4 ± 5.2 % from the initial one
same,hind paws grip strength,[1]; [8],92.8 ± 7.6 % from the initial one
same,mechanical allodynia pain threshold,[1]; [8],112.4±8.6 & % from the initial one
same,mechanical hyperalgesia,[1]; [8],81.8 ± 3.7 & % from the initial one
same,hind paws grip strength,[1]; [9],93.9 ± 15.5 % from the initial one
same,mechanical allodynia pain threshold,[1]; [9],126.6±15.4 & % from the initial one
same,mechanical hyperalgesia,[1]; [9],84.2 ± 7.4 % from the initial one
same,hind paws grip strength,"[1]; rat MIA, days 14, 21, 28","stable statistically significant improvements, but only on day 28"
same,Mechanical hyperalgesia pain threshold,"[1]; rat MIA, reference drugs","positive effects, but they were statistically significant only on days 21 and 28"
same,mechanical allodynia pain threshold,"[1]; rat MIA, reference drugs",increased the pain threshold
same,Lesion area,[2],25.3 ± 2.2^& %
same,Lesion depth,[2],50.5 ± 7.1%
"O=C(O)Cc1ccccc1Nc1c(Cl)cccc1Cl [diclofenac, reference compound]",Animal death,[3]; 14 days,0%
same,Animal death,[3]; 18 days,0%
same,Animal death,[3]; 21 days,10%
same,Animal death,[3]; 25 days,20%
same,Animal death,[3]; 28 days,20%
same,The increase in the volume of the paws relative to the initial level,"[3]; non-involved paws, 14 days",14.28±0.98& %
same,The increase in the volume of the paws relative to the initial level,"[3]; non-involved paws, 18 days",22.01±2.42& %
same,The increase in the volume of the paws relative to the initial level,"[3]; non-involved paws, 21 days",22.85±2.82& %
same,The increase in the volume of the paws relative to the initial level,"[3]; non-involved paws, 25 days",19.99±2.76& %
same,The increase in the volume of the paws relative to the initial level,"[3]; non-involved paws, 28 days",20.8±3.06& %
same,Volume of non-involved paws,"[3]; rat AIA, diclofenac, day 28",no statistically significant effect
same,Rats died,"[3]; rat AIA, sodium diclofenac",20%
same,The increase in the volume of the paws relative to the initial level,"[3]; treated paws, 14 days",85.1 ± 8.01 & n = 10%
same,The increase in the volume of the paws relative to the initial level,"[3]; treated paws, 18 days",90.16 ± 9.34 & n = 10%
same,The increase in the volume of the paws relative to the initial level,"[3]; treated paws, 21 days",89.64 ± 9.99 & n = 9%
same,The increase in the volume of the paws relative to the initial level,"[3]; treated paws, 25 days",88.04 ± 12.52 &. n = 8%
same,The increase in the volume of the paws relative to the initial level,"[3]; treated paws, 28 days",92.37 ± 13.78 & n=8%
